{"source": "patent US8008505B2", "about": "“Indazole or 4,5,6,7-tetrahydro-indazole derivatives” (Hoffmann-La Roche Inc., priority 2008, dated 2011)", "biological_target": "T1, FXR ligand binding domain (Homo sapiens, UniProt Q96RI1)", "T1 sequence (Q96RI1 1-486)": "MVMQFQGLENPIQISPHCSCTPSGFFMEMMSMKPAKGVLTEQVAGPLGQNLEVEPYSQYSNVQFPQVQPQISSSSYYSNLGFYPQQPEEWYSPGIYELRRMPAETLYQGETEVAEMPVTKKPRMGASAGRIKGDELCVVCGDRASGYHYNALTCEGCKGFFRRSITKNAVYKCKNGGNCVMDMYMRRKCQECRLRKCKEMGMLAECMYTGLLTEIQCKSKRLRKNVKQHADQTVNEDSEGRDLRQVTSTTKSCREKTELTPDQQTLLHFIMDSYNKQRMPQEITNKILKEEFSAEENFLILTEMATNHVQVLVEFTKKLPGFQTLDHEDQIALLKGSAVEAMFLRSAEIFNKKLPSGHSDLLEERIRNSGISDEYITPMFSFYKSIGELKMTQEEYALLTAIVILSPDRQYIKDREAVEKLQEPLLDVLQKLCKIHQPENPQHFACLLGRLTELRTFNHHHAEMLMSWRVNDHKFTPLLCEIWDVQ", "assay": "Radioligand binding assay (radioligand displacement, scintillation proximity)", "conditions": "GST-FXR LBD fusion protein on SPA beads, radioligand 2,N-dicyclohexyl-2-[2-(2,4 dimethoxy-phenyl)-benzoimidazol-1-yl]-acetamide, RT 30 minutes", "description": "The following tests were carried out in order to determine the activity of the compounds of formula I. Background information on the binding assay can be found in: Nichols J S et al. “Development of a scintillation proximity assay for peroxisome proliferator-activated receptor gamma ligand binding domain”, (1998) Anal. Biochem. 257: 112-119.\nBacterial and mammalian expression vectors were constructed to produce glutathione-s-transferase (GST) and Gal4 DNA binding domain (GAL) proteins fused to the ligand binding domain (LBD) of human FXR (aa 193-473). To accomplish this, the portions of the sequences encoding the FXR LBD were amplified by polymerase chain reaction (PCR) from a full-length clone by PCR and then subcloned into the plasmid vectors. The final clone was verified by DNA sequence analysis.\nThe induction, expression, and subsequent purification of GST-LBD fusion protein was performed in E. coli strain BL21(pLysS) cells by standard methods (Current Protocols in Molecular Biology, Wiley Press, ed. Ausubel et al).\nRadioligand Binding Assay\nBinding of test substances to the FXR ligand binding domain was assessed in a radioligand displacement assay. The assay was performed in a buffer consisting of 50 mM Hepes, pH 7.4, 10 mM NaCl, 5 mM MgCl2. For each reaction well in a 96-well plate, 40 nM of GST-FXR LBD fusion protein was bound to 10 μg glutathione ytrium silicate SPA beads (Pharmacia Amersham) in a final volume of 50 μl by shaking. A radioligand (eg. 40 nM) of 2,N-dicyclohexyl-2-[2-(2,4 dimethoxy-phenyl)-benzoimidazol-1-yl]-acetamide) was added, and the reaction incubated at RT for 30 minutes in the presence of test compounds followed by scintillation proximity counting. All binding assays were performed in 96-well plates and the amount of bound ligand was measured on a Packard TopCount using OptiPlates (Packard). Dose response curves were performed within a range of concentration from 6×10^−9 M to 2.5×10^−5 M.", "data": [{"smiles": "O=C(O)c1ccc(NC(=O)C(c2c3cc(F)c(F)cc3nn2-c2ccc(Cl)cc2)C2CCCCC2)c(F)c1", "note": "(racemic) [Example 32, [rac]-4-{2-[2-(4-Chloro-phenyl)-5,6-difluoro-2H-indazol-3-yl]-2-cyclohexyl-acetylamino}-3-fluoro-benzoic acid]", "values": [{"measurement": "IC50", "result": 1700, "unit": "nM"}]}, {"smiles": "Clc1ccc(-n2nc3ccccc3c2C(OCc2ccc(-c3nnn[nH]3)cc2)C2CCCCC2)cc1", "note": "(racemic) [Example 47, [rac]-2-(4-Chloro-phenyl)-3-{cyclohexyl-[4-(2H-tetrazol-5-yl)-benzyloxy]-methyl}-2H-indazole]", "values": [{"measurement": "IC50", "result": 2, "unit": "nM"}]}, {"smiles": "Fc1cc(-c2nnn[nH]2)ccc1OCC(c1c2ccccc2nn1-c1ccc(Cl)cc1)C1CCCCC1", "note": "(racemic) [Example 31, [rac]-2-(4-Chloro-phenyl)-3-{1-cyclohexyl-2-[2-fluoro-4-(2H-tetrazol-5-yl)-phenoxy]-ethyl}-2H-indazole]", "values": [{"measurement": "IC50", "result": 100, "unit": "nM"}]}, {"smiles": "N#Cc1ccc(OC(c2c3cc(F)c(F)cc3nn2-c2ccc(Cl)cc2)C2CCCCC2)c(F)c1", "note": "(racemic) [Example 35, [rac]-4-{[2-(4-Chloro-phenyl)-5,6-difluoro-2H-indazol-3-yl]-cyclohexyl-methoxy}-3-fluoro-benzonitrile]", "values": [{"measurement": "IC50", "result": 870, "unit": "nM"}]}, {"smiles": "O=C(O)c1ccc(NC(=O)C(O)(c2c3c(nn2-c2ccc(Cl)cc2)CCCC3)C2CCCCC2)c(F)c1", "note": "(stereo not shown) [Example 5, 4-{2-[2-(4-Chloro-phenyl)-4,5,6,7-tetrahydro-2H-indazol-3-yl]-2-cyclohexyl-2-hydroxy-acetylamino}-3-fluoro-benzoic acid]", "values": [{"measurement": "IC50", "result": 2050, "unit": "nM"}]}, {"smiles": "N#Cc1ccc(OCC(c2c3c(nn2-c2ccc(Cl)cc2)CCCC3)C2CCCCC2)c(F)c1", "note": "(racemic) [Example 37, [rac]-4-{2-[2-(4-Chloro-phenyl)-4,5,6,7-tetrahydro-2H-indazol-3-yl]-2-cyclohexyl-ethoxy}-3-fluoro-benzonitrile]", "values": [{"measurement": "IC50", "result": 3480, "unit": "nM"}]}, {"smiles": "CC(C)(Oc1ccc(NC(=O)C(c2c3cc(F)c(F)cc3nn2-c2ccc(Cl)cc2)C2CCCCC2)c(F)c1)C(=O)O", "note": "(racemic) [Example 26, [rac]-2-(4-{2-[2-(4-Chloro-phenyl)-5,6-difluoro-2H-indazol-3-yl]-2-cyclohexyl-acetylamino}-3-fluoro-phenoxy)-2-methyl-propionic acid]", "values": [{"measurement": "IC50", "result": 570, "unit": "nM"}]}, {"smiles": "O=C(N[C@H]1CC[C@H](O)CC1)C(c1c2c(nn1-c1ccc(Cl)cc1)CCCC2)C1CCCCC1", "note": "(mixture of isomers) [Example 59, [rac]-2-[2-(4-Chloro-phenyl)-4,5,6,7-tetrahydro-2H-indazol-3-yl]-2-cyclohexyl-(trans)-N-(4-hydroxy-cyclohexyl)-acetamide]", "values": [{"measurement": "IC50", "result": 3040, "unit": "nM"}]}, {"smiles": "COc1cccc(C(C(=O)NC2CCCCC2)c2c3ccccc3nn2-c2ccccc2)c1", "note": "(stereo not shown) [Example 2, N-Cyclohexyl-2-(3-methoxy-phenyl)-2-(2-phenyl-2H-indazol-3-yl)-acetamide]", "values": [{"measurement": "IC50", "result": 9170, "unit": "nM"}]}, {"smiles": "O=C(O)c1ccc(OCC(c2c3ccccc3nn2-c2ccc(Cl)cc2)C2CCCCC2)nc1", "note": "(racemic) [Example 53, [rac]-6-{2-[2-(4-Chloro-phenyl)-2H-indazol-3-yl]-2-cyclohexyl-ethoxy}-nicotinic acid]", "values": [{"measurement": "IC50", "result": 730, "unit": "nM"}]}, {"smiles": "O=C(O)CCc1ccc(NC(=O)C(c2c3c(nn2-c2ccc(Cl)cc2)CCCC3)C2CCCCC2)c(F)c1", "note": "(racemic) [Example 61, [rac]-3-(4-{2-[2-(4-Chloro-phenyl)-4,5,6,7-tetrahydro-2H-indazol-3-yl]-2-cyclohexyl-acetylamino}-3-fluoro-phenyl)-propionic acid]", "values": [{"measurement": "IC50", "result": 130, "unit": "nM"}]}, {"smiles": "O=C(NC1CCCC1)C(O)(c1c2c(nn1-c1ccc(Cl)cc1)CCCC2)C1CCCCC1", "note": "(stereo not shown) [Example 9, 2-[2-(4-Chloro-phenyl)-4,5,6,7-tetrahydro-2H-indazol-3-yl]-2-cyclohexyl-N-cyclopentyl-2-hydroxy-acetamide]", "values": [{"measurement": "IC50", "result": 4860, "unit": "nM"}]}, {"smiles": "O=C(NC1CCCCC1)C(c1ccccc1)c1c2ccccc2nn1-c1ccccc1", "note": "(stereo not shown) [Example 3, N-Cyclohexyl-2-phenyl-2-(2-phenyl-2H-indazol-3-Y1)-acetamide]", "values": [{"measurement": "IC50", "result": 7440, "unit": "nM"}]}, {"smiles": "Clc1ccc(-n2nc3c(c2C(CNc2ccc(-c4nnn[nH]4)cc2)C2CCCCC2)CCCC3)cc1", "note": "(racemic) [Example 65, [rac]-{2-[2-(4-Chloro-phenyl)-4,5,6,7-tetrahydro-2H-indazol-3-yl]-2-cyclohexyl-ethyl}-[4-(1H-tetrazol-5-yl)-phenyl]-amine]", "values": [{"measurement": "IC50", "result": 4, "unit": "nM"}]}, {"smiles": "Fc1cc(-c2nnn[nH]2)ccc1OCC(c1c2c(nn1-c1ccc(Cl)cc1)CCCC2)C1CCCCC1", "note": "(racemic) [Example 38, [rac]-2-(4-Chloro-phenyl)-3-{1-cyclohexyl-2-[2-fluoro-4-(1H-tetrazol-5-yl)-phenoxy]-ethyl}-4,5,6,7-tetrahydro-2H-indazole]", "values": [{"measurement": "IC50", "result": 109, "unit": "nM"}]}, {"smiles": "O=C(NC1CCCCC1)C(c1c2ccccc2nn1-c1ccccc1)C1CCCCC1", "note": "(stereo not shown) [Example 1, 2,N-Dicyclohexyl-2-(2-phenyl-2H-indazol-3-yl)-acetamide]", "values": [{"measurement": "IC50", "result": 1920, "unit": "nM"}]}, {"smiles": "O=C(O)c1ccc(SCC(c2c3c(nn2-c2ccc(Cl)cc2)CCCC3)C2CCCCC2)cc1", "note": "(racemic) [Example 63, [rac]-4-{2-[2-(4-Chloro-phenyl)-4,5,6,7-tetrahydro-2H-indazol-3-yl]-2-cyclohexyl-ethylsulfanyl}-benzoic acid]", "values": [{"measurement": "IC50", "result": 200, "unit": "nM"}]}, {"smiles": "O=C(Nc1ccc(-c2nnn[nH]2)cc1F)C(c1c2c(nn1-c1ccc(Cl)cc1)CCCC2)C1CCCCC1", "note": "(racemic) [Example 58, [rac]-2-[2-(4-Chloro-phenyl)-4,5,6,7-tetrahydro-2H-indazol-3-yl]-2-cyclohexyl-N-[2-fluoro-4-(1H-tetrazol-5-yl)-phenyl]-acetamide]", "values": [{"measurement": "IC50", "result": 53, "unit": "nM"}]}, {"smiles": "O=C(O)c1ccc(OCC(c2c3c(nn2-c2ccc(Cl)cc2)CCCC3)C2CCCCC2)nc1", "note": "(racemic) [Example 64, [rac]-6-{2-[2-(4-Chloro-phenyl)-4,5,6,7-tetrahydro-2H-indazol-3-yl]-2-cyclohexyl-ethoxy}-nicotinic acid]", "values": [{"measurement": "IC50", "result": 250, "unit": "nM"}]}, {"smiles": "Fc1cc2nn(-c3ccc(Cl)cc3)c(C(COc3ccc(-c4nnn[nH]4)cc3F)C3CCCCC3)c2cc1F", "note": "(racemic) [Example 36, [rac]-2-(4-Chloro-phenyl)-3-{1-cyclohexyl-2-[2-fluoro-4-(2H-tetrazol-5-yl)-phenoxy]-ethyl}-5,6-difluoro-2H-indazole]", "values": [{"measurement": "IC50", "result": 400, "unit": "nM"}]}, {"smiles": "Fc1cc2nn(-c3ccc(Cl)cc3)c(C(OCc3ccc(-c4nnn[nH]4)cc3F)C3CCCCC3)c2cc1F", "note": "(racemic) [Example 42, [rac]-2-(4-Chloro-phenyl)-3-{cyclohexyl-[2-fluoro-4-(2H-tetrazol-5-yl)-benzyloxy]-methyl}-5,6-difluoro-2H-indazole]", "values": [{"measurement": "IC50", "result": 14, "unit": "nM"}]}, {"smiles": "COC(=O)c1ccc(COC(c2c3ccccc3nn2-c2ccc(Cl)cc2)C2CCCCC2)cc1", "note": "(racemic) [Example 17]", "values": [{"measurement": "IC50", "result": 7540, "unit": "nM"}]}, {"smiles": "O=C(O)c1ccc(NC(=O)C(c2c3ccccc3nn2-c2ccc(Cl)cc2)C2CCCCC2)c(F)c1", "note": "(stereo not shown) [Example 13, 4-{2-[2-(4-Chloro-phenyl)-2H-indazol-3-yl]-2-cyclohexyl-acetylamino}-3-fluoro-benzoic acid]", "values": [{"measurement": "IC50", "result": 4900, "unit": "nM"}]}, {"smiles": "Cc1cc(C(=O)O)cc(C)c1OCC(c1c2cc(F)c(F)cc2nn1-c1ccc(Cl)cc1)C1CCCCC1", "note": "(racemic) [Example 43, [rac]-4-{2-[2-[4-Chloro-phenyl]-5,6-difluoro-2H-indazol-3-yl]-2-cyclohexyl-ethoxy}-3,5-dimethyl-benzoic acid]", "values": [{"measurement": "IC50", "result": 29, "unit": "nM"}]}, {"smiles": "O=C(O)c1ccc(NC(=O)C(c2c3c(nn2-c2ccc(Cl)cc2)CCCC3)C2CCCCC2)cc1", "note": "(stereo not shown) [Example 7, 4-{2-[2-(4-Chloro-phenyl)-4,5,6,7-tetrahydro-2H-indazol-3-yl]-2-cyclohexyl-acetylamino}-benzoic acid]", "values": [{"measurement": "IC50", "result": 800, "unit": "nM"}]}]}
